Results published in patent US20160038519A1, “ADMINISTRATION OF KARENITECIN FOR THE TREATMENT OF ADVANCED OVARIAN CANCER, INCLUDING CHEMOTHERAPY-RESISTANT AND/OR THE MUCINOUS ADENOCARCINOMA SUB-TYPES” (BioNumerik Pharmaceuticals, Inc., priority 2014, published 2016).
Read-outs that look alike come from different tables or passages of the source.

Assays:
MDR-expressing sublines = conditions: comparison studies; cited from earlier work
[1] = tested on: mucinous cell lines (JHOM2B, OMC3, and COV644); test: SRB assay, joint statements for the mucinous cell lines incl. effect of BNP7787 on BNP1350-induced cytotoxicity; format: cell-based, human
Description: (§1) In vitro studies were conducted in human mucinous ovarian cancer cell lines including JHOM2B, OMC3, and COV644. In one series of experiments, the dose response curves for BNP1350 (also known as Karenitecin), SN-38 (Irinotecan), and Topotecan were obtained and IC50 values were determined. In a second series of experiments, the effect of BNP7787 (2,2′-dithio-bis-ethane sulfonate; Tavocept) on BNP1350-induced cytotoxicity at selected BNP1350 concentrations was examined.
The JHOM2B and OMC3 cell lines were purchased from Riken Cell Bank (Japan). The COV644 cell line was purchased from SigmaAldrich. Cells were maintained as monolayered cultures in T-75 flasks and then seeded to microtiter plate wells for experiments. Population doubling-times for these three cell lines were long (i.e., exceeding 40 hours, and for some of the cell lines approaching 96 hours); therefore, the Applicants conducted initial pilot experiments and determined optimal seeding density to obtain A570 values in untreated controls that would fall within the linear range of the SRB assay after seven (7) total days of cell growth. […]
The cells were manipulated in a Microzone laminar flow hood traditionally used for maintaining aseptic environments around automated instrumentation such as microplate robots, and the like. […] Cells were counted using a ViCell counter (Beckman-Coulter). An automated plate washer/stacker (ELx405/BioStak from BioTek Instruments) and a microplate reader (SpectraMax Plus from Molecular Devices) were used for conducting the SRB assay and determining A570 values for wells in the plates and the percentage of control values. Prior to SRB assays, cell viability was monitored by evaluation of microtiter plate wells. […]
The sulforhodamine B (SRB) cytotoxicity assay was used to assess cell survival. […] Plates were agitated (gently) for 5 minutes and the absorbance values of the SRB dye-protein adduct at 570 nanometers (A570) were determined using an automated microtiter plate reader (SpectraMax Plus, Molecular Devices). […]

[2] = tested on: human breast, ovarian and lymphoma cancer cell lines; test: Paclitaxel induced apoptosis (PARP cleavage, Bcl-2 phosphorylation, DNA laddering); format: cell-based
Excerpt: (§2) Tavocept mediates the non-enzymatic xenobiotic modification of sulfur-containing amino acid residues (e.g., cysteine) on proteins. As an engineered, non-naturally occurring agent (i.e., xenobiotic), Tavocept is autocatalytic and requires no protein cofactor to cause the xenobiotic modification of cysteine, but appears to be specific for cysteine residues located within a particular structural context (i.e., not all cysteines in a protein are so modified). Tavocept-mediated, xenobiotic modification represents a novel mechanism of action for a cancer treating agent and can be compared, to a degree, with post-translational modifications of cysteine residues in proteins (see, Table 3, below). By way of non-limiting example, some of the important elements of Tavocept's effectiveness as a compound in the treatment of cancer are its selectivity for normal cells versus cancer cells and its absence of interference with the anti-cancer activity of cancer treating agents.

human cancer cell lines = test: Paclitaxel- and platinum-induced cytotoxicity; format: cell-based
Excerpt: as §2

[3] = human, in vivo; cited from earlier work
JHOM2B Cell Line = test: SRB cytotoxicity assay, JHOM2B; format: cell-based, human
Description: as §1
(§3) The JHOM2B and OMC3 cell lines were purchased from Riken Cell Bank (Japan). The COV644 cell line was purchased from SigmaAldrich. Cells were maintained as monolayered cultures in T-75 flasks and then seeded to microtiter plate wells for experiments. Population doubling-times for these three cell lines were long (i.e., exceeding 40 hours, and for some of the cell lines approaching 96 hours); therefore, the Applicants conducted initial pilot experiments and determined optimal seeding density to obtain A570 values in untreated controls that would fall within the linear range of the SRB assay after seven (7) total days of cell growth. JHOM2B cells were cultured in DMEM:F12 (1:1)+0.1 mM non-essential amino acids (NEAA)+10% FBS and were seeded at 6,000 cells per well. OMC3 cells were cultured in HamF12+10% FBS and were seeded at 8,000 cells per well. COV644 cells were cultured in DMEM+2 mM glutamine+10% FBS and were seeded at 6,000 cells per well.
(§4) The cells were manipulated in a Microzone laminar flow hood traditionally used for maintaining aseptic environments around automated instrumentation such as microplate robots, and the like. Cells were grown and maintained at 37° C. in a humidified atmosphere containing 5% CO2 in a water jacketed cell culture incubator (Forma Scientific). Cells were counted using a ViCell counter (Beckman-Coulter). An automated plate washer/stacker (ELx405/BioStak from BioTek Instruments) and a microplate reader (SpectraMax Plus from Molecular Devices) were used for conducting the SRB assay and determining A570 values for wells in the plates and the percentage of control values. Prior to SRB assays, cell viability was monitored by evaluation of microtiter plate wells. Dead cells detach and float while living cells remain attached to the bottom of the cell well.
(§5) SN-38 (Irinotecan; Sigma H0165, lot MKBQ4981) and Topotecan (Sigma T2705, lot 052M4728V) were purchased from SigmaAldrich. BNP1350 (lot KN-C192-135) and BNP7787 (lot 205001) were synthesized at BioNumerik Pharmaceuticals, Inc. (San Antonio, Tex.). BNP1350, SN38, and Topotecan were prepared as 2.5, 2.5, and 25 mM stocks in DMSO (ATCC, cell culture grade).
(§6) The sulforhodamine B (SRB) cytotoxicity assay was used to assess cell survival. Briefly, after the medium was decanted from individual plate wells, trichloroacetic acid (100 μL of 10.0 percent solution) was added to each well, and the plates were incubated at 4° C. for 1 hour. The plates were washed five times with water using an automated microplate washer (Model ELx405, Bio-Tek Instruments), SRB solution (100 μL of 0.4% SRB dissolved in 1.0 percent acetic acid) was added, and plates remained at room temperature for 15 minutes. The plates were then washed five times using acetic acid (1.0 percent), air dried, and bound dye was solubilized in Tris base (150 μL, 10 mM). Plates were agitated (gently) for 5 minutes and the absorbance values of the SRB dye-protein adduct at 570 nanometers (A570) were determined using an automated microtiter plate reader (SpectraMax Plus, Molecular Devices). IC50 values were extrapolated from dose response curves of the data using OriginLab Software.

OMC3 Cell Line = test: SRB cytotoxicity assay, OMC3; format: cell-based, human
Description: as §1, §3, §4, §5, §6

COV644 Cell Line = test: SRB cytotoxicity assay, COV644; format: cell-based, human; conditions: 2, 5, and 6 hour drug exposures
Description: as §1, §3, §4, §5, §6
(§7) The 1050 values exceeded the solubility in medium for each compound—the limit of solubility in cell culture medium for the compounds were as follows: 2 micromolar for BNP1350 and SN38, and 20 micromolar for Topotecan. Cells were treated for periods of 2.5 hours or 6 hours and, in each case, the […] values were not reached. Longer treatments were not performed.

[4] = Limit of solubility in cell culture medium; format: physicochemical
Description: as §7

[5] = 2 hour drug exposure, read-out: IC50, Test 1 (2 replicate plates)
[6] = 2 hour drug exposure, read-out: IC50, Test 2 (3 replicate plates)

CC[C@@]1(O)C(=O)OCc2c1cc1n(c2=O)Cc2cc3c(N)cccc3nc2-1 [9-aminocamptothecin, 9-amino-camptothecin]
Resistance of MDR-expressing sublines relative to parental wild-type cells (MDR-expressing sublines): two-fold more resistant

CC[C@@]1(O)C(=O)OCc2c1cc1n(c2=O)Cc2cc3cc4c(cc3nc2-1)OCO4 [10,11-methylenedioxycamptothecin]
Resistance of MDR-expressing sublines relative to parental wild-type cells (MDR-expressing sublines): No increase in resistance

O=S(=O)([O-])CCSSCCS(=O)(=O)[O-].[Na+].[Na+] [BNP7787, 2,2′-dithio-bis-ethane sulfonate]
Effect on BNP1350-induced cytotoxicity ([1]; BNP7787 1 or 10 mM added simultaneously with approximate IC50 and IC25 values of BNP1350, each cell line): no notable effect
Effect on cell survival as single agent ([1]; BNP7787 alone, 1 and 10 mM): did not affect cell survival
Interference with paclitaxel induced apoptosis [2]: does not interfere
Interference with paclitaxel- and platinum-induced cytotoxicity (human cancer cell lines): not to interfere

Nc1ccn([C@@H]2O[C@H](CO)[C@@H](O)C2(F)F)c(=O)n1 [Gemcitabine]
Subjects with neutropenia [3]: up to 90%

CCc1c2c(nc3ccc(O)cc13)-c1cc3c(c(=O)n1C2)COC(=O)[C@]3(O)CC [SN38]
IC50 (JHOM2B Cell Line; 2 hour drug exposure, average of Test 1 and Test 2, read-out: IC50, Average): 666 nM
IC50 (JHOM2B Cell Line; [5]): 610 ± 130 nM
IC50 (JHOM2B Cell Line; [6]): 723 ± 28 nM
IC50 (JHOM2B Cell Line; read-out: IC50 values): 667 nM
IC50 (OMC3 Cell Line; [5]): 550 ± 60 nM
IC50 (OMC3 Cell Line; [6]): 580 ± 127 nM
IC50 (OMC3 Cell Line; read-out: IC50 values): 565 nM
IC50 (COV644 Cell Line; did not reach 50% of Control, read-out: IC50, Test 1 (2 replicate plates)): > 2000 nM
IC50 (COV644 Cell Line; did not reach 50% of Control, read-out: IC50, Test 2 (2 to 3 replicate plates)): > 2000 nM
IC50 (COV644 Cell Line; read-out: IC50, Average): > 2000 nM
Limit of solubility in cell culture medium [4]: 2 µM
